Two compounds from patent US20110105576A1 (priority 2008, published 2011) can be followed below.

Where two headings read alike, the source gives them in different places.

In test [1] the test system is Fusarium graminearum (ear rot of maize). The class given is cell-based. To be noted: solo, 48 hrs.
For test [2] the test system is unchanged. The class given is cell-based. The following applies: solo, 48 hrs. This is another data set of the same source.

For `CCCN(CCOc1c(Cl)cc(Cl)cc1Cl)C(=O)n1ccnc1` [A, prochloraz], the “Observed control in %” value in test [1] (0.004 ppm (mg a.i./liter final medium)) is 0%; in test [1] (0.008 ppm), 3%; in test [1] (0.016 ppm) it was 6%; in test [1] (0.031 ppm) it was 11%; in test [1] (0.063 ppm), 25%; in test [1] (0.125 ppm), 86%. Also, the “Observed control in %” value in test [1] (0.25 ppm) is 94%; in test [1] (0.5 ppm), 96%; in test [1] (1.0 ppm), 96%; in test [1] (2.0 ppm) it was 96%.
With `CC1(C)CCC(Cc2ccc(Cl)cc2)C1(O)Cn1cncn1` (stereo not drawn) [B, metconazole], the “Observed control in %” value in test [1] (0.008 ppm) came to 3%; in test [1] (0.25 ppm) it was 93%; in test [1] (0.5 ppm), 95%; in test [1] (2.0 ppm), 96%; in test [2] (0.008 ppm) it was 3%; in test [2] (0.25 ppm), 93%. The “Observed control in %” value was 95% in test [2] (0.5 ppm) and 96% in test [2] (2.0 ppm).
